Test results taken from patent US11098040B2, “Compounds and methods of use” (Ferro Therapeutics, Inc., priority 2018, dated 2021).

What was measured:
BxPC-3 = test: Cell proliferation assay, pancreatic cancer cell line BxPC-3; assay type: cell-based; details: Homo sapiens
Experimental: (§1) Cell viability assay was performed to assess the potency of the compounds in human cancer cell lines 786-O (renal cell carcinoma) and SJSA-1 (osteosarcoma). Additional cell lines, such as those described above in Example 4 as well as various others, e.g., pancreatic cancer cell lines (Panc 02.13, BxPC-3, Panc 12, Panc 02.03, Panc 6.03, PSN-1, HPAC, and Capan-1) and prostate cancer cell lines (PC-3, DU145, 22Rv1, NCI-H660, BPH1, LNCaP, BM-1604, and MDA PCa 2b), were tested for select compounds as shown in Table 25.
(§2) The cell proliferation assays for the compounds shown Table 25 was performed according to the protocols described herein, including Examples 4 and 6.

U-2 OS = test: Cell proliferation assay, U-2 OS (Table 25); assay type: cell-based; details: Homo sapiens, U2OS; Cell Line U-2 OS
Experimental: as §1, §2

MiaPaCa-2 = test: Cell viability assay (CellTiter Glo), pancreatic carcinoma MiaPaCa-2; assay type: cell-based; details: Homo sapiens; Cell Line Mia PaCa-2; read-out: IC50
Method in brief: (§3)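 MiaPaCa-2 and AsPC-1 cells were seeded overnight at 37 °C and exposed for 96 h to 9-point, 3-fold dilutions from up to 30 μM (final DMSO ≤0.25%). CellTiter Glo luminescence was read, and inhibition was calculated relative to DMSO-only cells. IC50, relative IC50 or % top inhibition was derived.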

HT-1080 luc2 = test: Cell viability assay (CellTiter Glo), fibrosarcoma HT-1080 luc2; assay type: cell-based; details: Homo sapiens, Cell Line HT1080, read-out: IC50
Experimental: (§4) Cell viability assay was performed to assess the potency of the compounds in human cancer cell lines KP4 (pancreatic ductal adenocarcinoma), MiaPaCa-2 (pancreatic carcinoma), AsPC-1 (pancreatic adenocarcinoma, ascites), 143B (osteosarcoma), and SJSA-1 (osteosarcoma). Selected compounds were also assayed in a human breast epithelial cell line MCF-10A, a nontumorigenic cell line as a control to assess differential activity. Cells at a density of 500-5,000 cells/well were seeded in 96-well plates and incubated at 37° C. overnight. A series of 9 different concentrations of compound stocks (500×) were created by 3-fold serial dilution in DMSO. These compounds were further diluted in culture media and then added to cells so that the final DMSO concentration was equal to 0.25% or less. After 96 hours of incubation, 50 μL of CellTiter Glo reagent (Promega) was added to each well and luminescence was measured after 10 minutes using EnVision (PerkinElmer). Compounds titrated from top concentration of up to 30 μM. The select compounds were tested initially from 30 μM as the top concentration in duplicates (range of 4.6 nM-30 μM). […] Luminescence from cells treated with DMSO alone was set as Max and % of inhibition was calculated as follows: Inhibition %=(Max-Sample value)/Max*100. Data was analyzed using XL-fit software (ID Business Solutions Ltd.). IC50, relative IC50, or % of top inhibition was calculated.
(§5) A group of selected analogs were further profiled in cell viability assays described above in multiple additional cancer cell lines, including lung cancer, melanoma, hepatocarcinoma, pancreatic cancer, leukemia, lymphoma, ovarian cancer, breast cancer, colon cancer, and sarcoma cell lines. Initial cell seeding numbers were adjusted for each cell line. Typically, 500-5000 cells/well for adherent cells and 5000-10000/well for suspension cells were seeded in 96-well plates.
The results of the assay in sarcoma cell lines are given in Table 21a for HT-1080 luc2 (fibrosarcoma expressing a luciferase gene), Table 21b for 143B (osteosarcoma), and Table 21c for SJSA-1 (osteosarcoma).

Capan-1 = test: Cell proliferation assay, pancreatic cancer cell line Capan-1; assay type: cell-based; details: Homo sapiens
Experimental: as §1, §2

H2228 = test: Cell viability assay (CellTiter Glo), lung cancer cell line H2228; assay type: cell-based; details: Homo sapiens, NCI-H2228; Cell Line H2228; read-out: IC50
Experimental: as §4, §5

HPAC = test: Cell proliferation assay, pancreatic cancer cell line HPAC; assay type: cell-based; details: Homo sapiens
Experimental: as §1, §2

Panc 02.13 = test: Cell proliferation assay, pancreatic cancer cell line Panc 02.13; assay type: cell-based
Experimental: as §1, §2

Panc 6.03 = test: Cell proliferation assay, pancreatic cancer cell line Panc 6.03; assay type: cell-based
Experimental: as §1, §2

143B = test: Cell viability assay (CellTiter Glo), osteosarcoma 143B; assay type: cell-based; details: Homo sapiens, Cell Line 143B, read-out: IC50
Method in brief: (§6)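 Cells seeded at 500-5,000/well overnight, then 96 h exposure to 9-point 3-fold dilutions from up to 30 μM (4.6 nM-30 μM), final DMSO ≤0.25%. Viability by CellTiter Glo luminescence; inhibition relative to DMSO-only cells, yielding IC50, relative IC50 or % top inhibition.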

AsPC-1 = test: Cell viability assay (CellTiter Glo), pancreatic adenocarcinoma AsPC-1; assay type: cell-based; details: Homo sapiens, ASPC1; Cell Line AsPC-1; read-out: IC50
Method in brief: as §3

Panc 02.03 = test: Cell proliferation assay, pancreatic cancer cell line Panc 02.03; assay type: cell-based; details: Homo sapiens
Experimental: as §1, §2

PSN-1 = test: Cell proliferation assay, pancreatic cancer cell line PSN-1; assay type: cell-based; details: Homo sapiens, PSN1
Experimental: as §1, §2

Panc 12 = test: Cell proliferation assay, pancreatic cancer cell line Panc 12; assay type: cell-based
Experimental: as §1, §2

KP4 = test: Cell viability assay (CellTiter Glo), pancreatic ductal adenocarcinoma KP4; assay type: cell-based, human; details: Homo sapiens, KP-4, Cell Line KP4; read-out: IC50
Method in brief: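 Luminescent ATP readout (CellTiter Glo) after 96 h compound exposure, normalized to DMSO-treated cells as maximum. Compounds ran in duplicate, nine 3-fold steps from 30 μM down to 4.6 nM, final DMSO ≤0.25%; KP4 plated overnight at 1,000–10,000 cells/well. Outputs: IC50, relative IC50 or % top inhibition.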

SJSA-1 = test: Cell viability assay (CellTiter Glo), osteosarcoma SJSA-1; assay type: cell-based; details: Homo sapiens, 96 hours
Method in brief: as §6

MG-63 = test: Cell proliferation assay, MG-63 (Table 25); assay type: cell-based; details: Homo sapiens
Experimental: as §1, §2

A549 = test: Cell viability assay, A549 cells; assay type: cell-based; details: Homo sapiens, A549, Cell Line A549; read-out: IC50
Method in brief: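 Growth of A549 cells was assessed with a cell viability assay. Cells were plated at 1,000-10,000 cells/well in 96-well plates and incubated overnight at 37° C. Nine-point 3-fold DMSO dilutions, starting from 30 μM and run in duplicate, were diluted into media (final DMSO 0.25% or less). After 96 hours, CellTiter Glo luminescence was read, inhibition was calculated against DMSO controls, and IC50 was fitted in XL-fit.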

CC[C@H]1Cc2c([nH]c3ccccc23)[C@H](c2ccc(N3CCOCC3)cc2)N1C(=O)CCl [Example 117]
IC50 (BxPC-3): 0.0867 µM | IC50 (U-2 OS): 3.6 µM | IC50 (MiaPaCa-2): 0.057 µM | IC50 (HT-1080 luc2): 0.00716 µM | IC50 (Capan-1): 0.261 µM | IC50 (H2228): 0.00337 µM | IC50 (HPAC): 0.0484 µM | IC50 (Panc 02.13): 0.216 µM | IC50 (Panc 6.03): 0.0328 µM | IC50 (143B): 0.0114 µM | IC50 (AsPC-1): 0.0127 µM | IC50 (Panc 02.03): 0.148 µM | IC50 (PSN-1): 0.0462 µM | IC50 (Panc 12; Cell Line Panc 8): 0.0148 µM

CCC[C@H]1Cc2c([nH]c3ccccc23)[C@H](c2ccc(N3CCOCC3)cc2)N1C(=O)CCl [Example 118]
IC50 (BxPC-3): 0.0544 µM | IC50 (U-2 OS): 5.02 µM | IC50 (MiaPaCa-2): 0.0164 µM | IC50 (KP4): 0.00092 µM | IC50 (HT-1080 luc2): 0.00381 µM | IC50 (Capan-1): 0.13 µM | IC50 (H2228): 0.00138 µM | IC50 (SJSA-1): 0.028 µM | IC50 (MG-63; MG-63, Cell Line MG-63): 0.0393 µM | IC50 (MG-63; MG-63, Cell Line MG-67): > 3 µM | IC50 (HPAC): 0.0205 µM | IC50 (Panc 02.13): 0.103 µM | IC50 (A549): 5.37 µM | IC50 (Panc 6.03): 0.0156 µM | IC50 (143B): 0.00474 µM | IC50 (AsPC-1): 0.00734 µM | IC50 (Panc 02.03): 0.0489 µM | IC50 (PSN-1): 0.0176 µM | IC50 (Panc 12; Cell Line Panc 9): 0.00638 µM
